From PMC3425516 (PLoS ONE, 2012)

Columns and labels:
Test in all cases: NCI-60 cell lines screening
Type in all cases: cell-based, human
SF-295 = settings: SF-295, CNS Cancer panel
Method: (§1) The NCI-60 cancer cell lines screening was conducted by the NCI’s Developmental Therapeutics Program (DTP; http://www.dtp.nci.nih.gov/branches/btb/ivclsp.html).

HOP-92 = settings: HOP-92, Non-Small Cell Lung Cancer panel
Method: as §1

MAD-MB-231/ATCC = settings: Breast Cancer panel
Method: as §1

OVCAR-5 = settings: OVCAR-5, Ovarian Cancer panel
Method: as §1

HCT-116 = settings: HCT-116, Colon Cancer panel
Method: as §1

MCF-7 = settings: MCF-7, Breast Cancer panel
Method: as §1

K-562 = settings: K-562, Leukemia panel
Method: as §1

A549/ATCC = settings: Non-Small Cell Lung Cancer panel
Method: as §1

HT29 = settings: HT29, Colon Cancer panel
Method: as §1

SN12C = settings: Renal Cancer panel
Method: as §1

M14 = settings: M14, Melanoma panel
Method: as §1

U251 = settings: U251, CNS Cancer panel
Method: as §1

NCI-H522 = settings: NCI-H522, Non-Small Cell Lung Cancer panel
Method: as §1

RPMI-8226 = settings: RPMI-8226, Leukemia panel
Method: as §1

RXF 393 = settings: RXF 393, Renal Cancer panel
Method: as §1

PC-3 = settings: PC-3, Prostate Cancer panel
Method: as §1

A498 = settings: A498, Renal Cancer panel
Method: as §1

OVCAR-8 = settings: OVCAR-8, Ovarian Cancer panel
Method: as §1

NCI-H23 = settings: NCI-H23, Non-Small Cell Lung Cancer panel
Method: as §1

IGROV1 = settings: IGROV1, Ovarian Cancer panel
Method: as §1

NCI-H322M = settings: Non-Small Cell Lung Cancer panel
Method: as §1

EKVX = settings: Non-Small Cell Lung Cancer panel
Method: as §1

SK-OV-3 = settings: SK-OV-3, Ovarian Cancer panel
Method: as §1

NCI/ADR-RES = settings: Ovarian Cancer panel
Method: as §1

T-47D = settings: Breast Cancer panel
Method: as §1

ACHN = settings: Renal Cancer panel
Method: as §1

UACC-62 = settings: UACC-62, Melanoma panel
Method: as §1

SF-539 = settings: SF-539, CNS Cancer panel
Method: as §1

SNB-75 = settings: SNB-75, CNS Cancer panel
Method: as §1

CCRF-CEM = settings: Leukemia panel
Method: as §1

[1] = Homo sapiens, read-out: LC50 (the source's name)

O=C(C=Cc1ccc2c(c1)CCN2S(=O)(=O)c1ccccc1)NO [MPT0E028, 3-(1-benzenesulfonyl-2,3-dihydro-1H-indol-5-yl)-N-hydroxy-acrylamide] gave a GI50 (SF-295; Homo sapiens) of 60.3 nM, a CC50 (SF-295; [1]) of 2430 nM and a TGI (SF-295) of 340 nM. It also gave a TGI (HOP-92) of 814 nM, a GI50 (HOP-92; Homo sapiens) of 210 nM and a CC50 (HOP-92; [1]) of 18000 nM. It also gave a TGI (MAD-MB-231/ATCC) of 822 nM, a GI50 (MAD-MB-231/ATCC; Homo sapiens) of 241 nM and a CC50 (MAD-MB-231/ATCC; [1]) of 20400 nM. For the same molecule, the GI50 (OVCAR-5; Homo sapiens) was 60.2 nM, the CC50 (OVCAR-5; [1]) was 2580 nM and the TGI (OVCAR-5) was 316 nM. The TGI (HCT-116) was 204 nM, the GI50 (HCT-116; Homo sapiens) was 56.3 nM and the CC50 (HCT-116; [1]) was 566 nM. For the same molecule, the GI50 (MCF-7; Homo sapiens, MCF7) was 230 nM, the CC50 (MCF-7; Homo sapiens, MCF7, read-out: LC50 (the source's name)) was 62700 nM and the TGI (MCF-7) was 10500 nM. It also gave a GI50 (K-562; Homo sapiens, K562) of 115 nM, a CC50 (K-562; Homo sapiens, K562, read-out: LC50 (the source's name)) of over 100000 nM and a TGI (K-562) of over 100000 nM. The GI50 (A549/ATCC; Homo sapiens) was 230 nM, the CC50 (A549/ATCC; [1]) was 9030 nM and the TGI (A549/ATCC) was 1090 nM. It also gave a TGI (HT29) of 716 nM, a GI50 (HT29; Homo sapiens, HT-29) of 118 nM and a CC50 (HT29; Homo sapiens, HT-29, read-out: LC50 (the source's name)) of 68100 nM. It also gave a GI50 (SN12C; Homo sapiens) of 458 nM, a CC50 (SN12C; [1]) of over 100000 nM and a TGI (SN12C) of 10200 nM. It also gave a GI50 (M14; Homo sapiens) of 179 nM, a CC50 (M14; [1]) of 6450 nM and a TGI (M14) of 1110 nM. For the same molecule, the GI50 (U251; Homo sapiens, U-251) was 199 nM, the CC50 (U251; Homo sapiens, U-251, read-out: LC50 (the source's name)) was 3760 nM and the TGI (U251) was 820 nM. For the same molecule, the GI50 (NCI-H522; Homo sapiens) was 167 nM, the CC50 (NCI-H522; [1]) was 13000 nM and the TGI (NCI-H522) was 845 nM. It also gave a GI50 (RPMI-8226; Homo sapiens) of 81.1 nM, a CC50 (RPMI-8226; [1]) of over 100000 nM and a TGI (RPMI-8226) of over 100000 nM. For the same molecule, the GI50 (RXF 393; Homo sapiens) was 112 nM, the CC50 (RXF 393; [1]) was 998 nM and the TGI (RXF 393) was 334 nM. The GI50 (PC-3; Homo sapiens) was 240 nM, the CC50 (PC-3; [1]) was over 100000 nM and the TGI (PC-3) was 21000 nM. It also gave a TGI (A498) of 1130 nM, a GI50 (A498; Homo sapiens) of 243 nM and a CC50 (A498; [1]) of 5130 nM. It also gave a GI50 (OVCAR-8; Homo sapiens) of 121 nM, a CC50 (OVCAR-8; [1]) of over 100000 nM and a TGI (OVCAR-8) of 1750 nM. For the same molecule, the GI50 (NCI-H23; Homo sapiens) was 188 nM, the CC50 (NCI-H23; [1]) was 3840 nM and the TGI (NCI-H23) was 922 nM. The GI50 (IGROV1; Homo sapiens, IGROV-1) was 183 nM, the CC50 (IGROV1; Homo sapiens, IGROV-1, read-out: LC50 (the source's name)) was 2390 nM and the TGI (IGROV1) was 533 nM. The GI50 (NCI-H322M; Homo sapiens) was 186 nM, the CC50 (NCI-H322M; [1]) was over 100000 nM and the TGI (NCI-H322M) was 11400 nM. It also gave a GI50 (EKVX; Homo sapiens) of 534 nM, a TGI (EKVX) of over 100000 nM and a GI50 (SK-OV-3; Homo sapiens) of 190 nM. It also gave a CC50 (SK-OV-3; [1]) of 4260 nM, a TGI (SK-OV-3) of 601 nM and a GI50 (NCI/ADR-RES; Homo sapiens) of 38.5 nM. The CC50 (NCI/ADR-RES; [1]) was over 100000 nM, the TGI (NCI/ADR-RES) was 239 nM and the TGI (T-47D) was 445 nM. The GI50 (T-47D; Homo sapiens, T47D) was 121 nM, the CC50 (T-47D; Homo sapiens, T47D, read-out: LC50 (the source's name)) was over 100000 nM and the GI50 (ACHN; Homo sapiens) was 167 nM. It also gave a CC50 (ACHN; [1]) of 4080 nM, a TGI (ACHN) of 576 nM and a GI50 (UACC-62; Homo sapiens) of 71.6 nM. For the same molecule, the TGI (UACC-62) was 339 nM, the GI50 (SF-539; Homo sapiens) was 241 nM and the CC50 (SF-539; [1]) was 3390 nM. For the same molecule, the TGI (SF-539) was 1150 nM, the GI50 (SNB-75; Homo sapiens) was 59.1 nM and the CC50 (SNB-75; [1]) was 32800 nM. It also gave a TGI (SNB-75) of 6270 nM, a GI50 (CCRF-CEM; Homo sapiens) of 165 nM and a CC50 (CCRF-CEM; [1]) of over 100000 nM. The TGI (CCRF-CEM) was over 100000 nM.
